Laboratory results as given in patent US20050089473A1, “Potassium channel mediated delivery of agents through the blood-brain barrier” (Cedars-Sinai Medical Center, priority 2003, published 2005).
Counter-ions that a name gives are not always drawn.

How the values were obtained:
intracerebral RG2 tumors = experiment: In vivo BTB permeability (Ki by quantitative autoradiography) in RG2 tumor-bearing rats; design: species or system rat; details: i.c. MS 30 μg/kg/min, RG2 tumor
Procedure: All animal experiments were conducted in accordance with policies set by the Institutional Animal Care and Usage Committee and NIH guidelines. A rat syngeneic tumor model was prepared using female Wistar rats and a human-tumor xenograft model in athymic nude rats weighing 180-200 g were prepared for the BBB/BTB permeability studies. […] Rat glioma (RG2) cells (1×10^5) in 5 μl of medium with 1.2% methylcellulose were injected into the basal ganglia of Wistar rats, while nude rats were injected with glioblastoma multiforme (GBM) primary cells (5×10^5). The coordinates were 5-mm lateral to the bregma and 4.5 mm deep to the basal ganglia. […] In regional permeability studies, 5 min after the start of the intracarotid (i.c.) infusion, 100 μCi/kg of [^14C] […]
The Ki was determined for radiotracers, [^14C]-AIB, [^14C]-carboplatin, and [^14C] dextran in the tumor core, tumor-adjacent brain tissue, and contralateral brain tissue using the quantitative autoradiographic (QAR) method as described earlier (Ningarsj, N. S., Rao, M., Hashizume, K., Asotra, K., and Black, K. L. Regulation of blood-brain tumor barrier permeability by calcium-activated potassium channels J. Pharmacol. Exp. Ther., 301:838-851, 2002; Ningaraj, N. S., Rao, M., and Black, K. L. Calcium-dependent potassium channels as a target protein ir. the modulation of blood-brain humor barrier.

GBM xenograft = experiment: In vivo BTB permeability (Ki by QAR) in GBM-xenograft nude rat model
Procedure: All animal experiments were conducted in accordance with policies set by the Institutional Animal Care and Usage Committee and NIH guidelines. A rat syngeneic tumor model was prepared using female Wistar rats and a human-tumor xenograft model in athymic nude rats weighing 180-200 g were prepared for the BBB/BTB permeability studies. Although brain tumor blood vessel development is rapid in rats compared to humans, this variable should not affect the findings or conclusions because the study analyzes the response of blood vessels, regardless of how rapidly they developed, to vasomodulators. The optimum number of tumor cells and incubation period for in vivo tumor growth was determined in separate experiments. Rat glioma (RG2) cells (1×10^5) in 5 μl of medium with 1.2% methylcellulose were injected into the basal ganglia of Wistar rats, while nude rats were injected with glioblastoma multiforme (GBM) primary cells (5×10^5). The coordinates were 5-mm lateral to the bregma and 4.5 mm deep to the basal ganglia. […]
The unilateral transfer constant, Ki (μl/g/min), which is an initial rate for blood-to-brain transfer of a radiotracer, was calculated as described by Ohno et al. (Ohno, K., Pettigrew, K. O., and Rapsport, S. T. Lower limits of cerebrovascular permeability to […] in the conscious rat. Am. J. Physiol., 253: H299-H307, 1978). […]

[1] = Physiological measurements during BTB permeability determination; type: in vivo, rat
Procedure: All animal experiments were conducted in accordance with policies set by the Institutional Animal Care and Usage Committee and NIH guidelines. A rat syngeneic tumor model was prepared using female Wistar rats and a human-tumor xenograft model in athymic nude rats weighing 180-200 g were prepared for the BBB/BTB permeability studies. Although brain tumor blood vessel development is rapid in rats compared to humans, this variable should not affect the findings or conclusions because the study analyzes the response of blood vessels, regardless of how rapidly they developed, to vasomodulators. The optimum number of tumor cells and incubation period for in vivo tumor growth was determined in separate experiments. Rat glioma (RG2) cells (1×10^5) in 5 μl of medium with 1.2% methylcellulose were injected into the basal ganglia of Wistar rats, while nude rats were injected with glioblastoma multiforme (GBM) primary cells (5×10^5). The coordinates were 5-mm lateral to the bregma and 4.5 mm deep to the basal ganglia. Seven days (for RG2 tumor) and 3-4 weeks (for GBM) after tumor implantation, the rats were prepared for permeability study as described by (Ningarsj, N. S., Rao, M., Hashizume, K., Asotra, K., and Black, K. L. Regulation of blood-brain tumor barrier permeability by calcium-activated potassium channels J. Pharmacol. Exp. Ther., 301:838-851, 2002; Ningaraj, N. S., Rao, M., and Black, K. L. Calcium-dependent potassium channels as a target protein ir. the modulation of blood-brain humor barrier. Drug News and Perspectives, 16:1-8, 2003). In regional permeability studies, 5 min after the start of the intracarotid (i.c.) infusion, 100 μCi/kg of [^14C] AIB, [^14C] dextran or [^14C] carboplatin to 1 ml phosphate buffer saline (PBS) was injected as an intravenous (i.v.) bolus within a 15 second period. To determine whether the infusion of vasomodulators would affect cerebral blood flow (CBF) at the tumor area, Cerebral Laser-Doppler Flowmetry (LDF) using a Laser-Doppler (DRT4, Moore Instruments Ltd., England) equipped with a DP3 optical (1 mm diameter) probe during 15 min i.c. infusion of vasomodulators in some rats (n=3/group) was used as described in Ningarsj, N. S., Rao, M., Hashizume, K., Asotra, K., and Black, K. L. Regulation of blood-brain tumor barrier permeability by calcium-activated potassium channels J. Pharmacol. Exp. Ther., 301:838-851, 2002; and Ningaraj, N. S., Rao, M., and Black, K. L. Calcium-dependent potassium channels as a target protein ir. the modulation of blood-brain humor barrier. Drug News and Perspectives, 16:1-8, 2003. Rats with abnormal CBF, blood gases or blood pressure were excluded from the study.
The physiological parameters were determined either before or during vasomodulator infusion. The values are mean±SD of n>4 rats, except for cerebral blood flowmetry (CBF) where three representative rats per group were used. pH is arterial pH; PaO2 is arterial oxygen; PaCO2 is arterial carbon dioxide; and MAP is mean arterial blood pressure.

[2] = tested on: metastatic breast brain tumors; experiment: [14C]AIB uptake in metastatic breast brain tumor model; type: in vivo, rat; details: intravenous co-injection
[3] = tested on: metastatic lung brain tumors; experiment: [14C]AIB uptake in metastatic lung brain tumor model; type: in vivo; details: intravenous co-injection
KATP channels = experiment: Membrane potential assay of KATP channel activity; type: cell-based, human; details: RBEC, HBMVEC, RG2 and GBM cells
Procedure: Functional activities of putative KATP channels in HBMVEC and GBM cells were measured by detecting changes in voltage across the cell membrane as described earlier (Ningarsj, N. S., Rao, M., Hashizume, K., Asotra, K., and Black, K. L. Regulation of blood-brain tumor barrier permeability by calcium-activated potassium channels J. Pharmacol. Exp. Ther., 301:838-851, 2002). A membrane potential assay kit (Molecular Devices, Sunnyvale, Calif.) provided a fast, simple and consistent mix-and-read procedure. In brief, HBMVEC and GBM cells obtained from cell passages 2-5 was suspended in 5 ml of growth medium. In two separate experiments, the cell density was adjusted to 1×10^3 cells/well and coated in sterile, clear bottom, blank 96-well plates (Corning, Inc., Acton, Mass.), pre-coated with poly L-Lysine, and allowed to achieve a monolayer within 24 h. The monolayer cells were incubated with the membrane potential assay kit reagents for 30 min and read directly by FLEXstation. The anionic pchemiometric dye that traverses between cells and the extracellular solution in a membrane potential-dependent manner serves as an indicator of vasomodulator-induced voltage changes across the cell membrane. […] Additionally, the effects of the optimum dose (10 μM) of MS and glibenclamide (100 nM) on KATP channels activity in HBMVEC and GBM cells were determined.

[4] = before or during vasomodulator infusion, mean±SD

Nc1cc(N2CCCCC2)nc(N)[n+]1OS(=O)(=O)[O-] [MS, minoxidil sulfate]
Delivery of [14C]-labeled AIB, dextran and carboplatin across the BTB (intracerebral RG2 tumors): significantly enhanced delivery
BTB permeability (Ki) (GBM xenograft; GBM xenograft nude rat, i.c. MS 30 μg/kg/min, glibenclamide 5 μg/kg/min for 15 min): 52 ± 8 µL/g/min
BBB permeability in normal brain surrounding tumor or normal contralateral brain (GBM xenograft; i.c. infusion): did not significantly affect BBB permeability
PaCO2 [1, 4]: 45 ± 1 mm Hg
PaO2 [1, 4]: 90 ± 5 mm Hg
pH (arterial pH) [1, 4]: 7.38 ± 0.01
Effect on CBF ([1]; i.c. 30 μg/kg/min, laser Doppler): not to significantly affect CBF
CBF (% change vs. vehicle) ([1]; laser-Doppler flowmetry, three rats per group): 8 ± 3 % change vs. vehicle
Level of [14C]AIB in brain tumor tissue versus saline [2]: approximately three times as great
Level of [14C]AIB surrounding the tumor and in contralateral brain versus vehicle [2]: does not differ significantly
Increase of [14C]AIB uptake to the tumor [3]: approximately three-fold
Membrane potential dye fluorescence intensity (KATP channels): dose-dependent decrease
